Data from PMC8162404, “Proteomimetic surface fragments distinguish targets by function” (Chemical Science, 2020).
Read-outs that look alike come from different tables or passages of the source.

Key:
[1] = molecular target: T1, S100A4 (Homo sapiens, UniProt P26447); test: Pull-down assay with immobilized protein and LSM libraries; type: binding; conditions: 1:1 binding assumed, read-out: Surface mapping KD (apparent)
T1 construct: made in house; host or cells: Escherichia coli BL21(DE3)
How it was run: (§1)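 Buffers were HEPES pH 7.4 with 150 mM NaCl, plus 1 mM TCEP and 1 mM CaCl2 (50 mM HEPES) for S100A4 and S100B, 1 mM TCEP for Gal-1, and no additive for RecQ-WH. Immobilized protein at 64 µM was equilibrated 30 min with the LSM sublibrary, and unbound probes were measured by LC-MS.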

[2] = molecular target: T2, S100B (Homo sapiens, UniProt P04271); test: as above; type: binding; conditions: 1:1 binding assumed, read-out: Surface mapping KD (apparent)
T2 construct: made in house; host or cells: Escherichia coli BL21(DE3)
T2 sequence (P04271 1-92): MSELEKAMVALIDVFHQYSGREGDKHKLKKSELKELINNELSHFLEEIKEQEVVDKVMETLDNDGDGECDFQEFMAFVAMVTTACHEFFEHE
How it was run: as §1

[3] = molecular target: T3, Gal-1 (Homo sapiens, UniProt P09382); test: as above; type: binding; conditions: 1:1 binding assumed, read-out: Surface mapping KD (apparent)
T3 construct: made in house; host or cells: E. coli BL21(DE3)
T3 sequence (P09382 whole entry): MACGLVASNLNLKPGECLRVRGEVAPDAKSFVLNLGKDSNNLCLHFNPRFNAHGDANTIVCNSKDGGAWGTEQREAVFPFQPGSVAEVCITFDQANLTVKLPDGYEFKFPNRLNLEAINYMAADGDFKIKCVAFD
How it was run: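 His-tagged protein immobilized on Co-NTA resin (64 µM) in 20 mM HEPES pH 7.4, 150 mM NaCl, equilibrated 30 min at room temperature with foldamer LSM sublibraries at equimolar total concentration. Unbound fractions quantified by HPLC-MS versus protein-free resin control; apparent KD assumes 1:1 binding.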

[4] = molecular target: T4, CaM (Bos taurus, UniProt P62157); test: as above; type: binding, bovine; conditions: 1:2 stoichiometry assumed, read-out: Surface mapping KD (apparent)
T4 construct: made in house; host or cells: E. coli BL21 (DE3)
How it was run: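 His-tagged protein immobilized on Co-NTA resin, equilibrated 30 min at room temperature with LSM sublibraries (64 members, […]), equimolar protein to total probe. CaM buffer: 20 mM HEPES pH 7.4, 150 mM NaCl, 5 mM CaCl2. Bound fractions from HPLC-MS loss of unbound probe versus protein-free resin control; Kd derived.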

[5] = molecular target: T3, Gal-1; test: Competition pull-down with lactose; type: binding; conditions: H14 library; lactose 10 mM; read-out: Surface mapping KD (apparent), competition
Experimental: Interactions between the H14 helical LSMs and the targets were abundant, but safe recognition of the native PPI interfaces on the targets is a criterion of druggability. To gain insight into the ability of the LSMs to detect orthosteric spots, we carried out pull-down assays in the presence of the native ligands (Table 2) of the targets (Fig. 5). For highlighting the effect of the competitor on the binding fingerprints, KD ratios and the LSM replacement percentages were calculated and are represented as heat maps (see ESI, Fig. S7 ^†). […] This could be explained by the glycan selective native recognition domain of the protein. We note that the replacement pattern for a single probe can, in theory, be complex. […] Moreover, a single probe can bind to both orthosteric and non-orthosteric spots, which limits overall displacement levels. To avoid overlooking interesting orthosteric weak binders, direct replacement levels were assessed (see ESI, Fig. S7 ^†).
Pull-down assay and data analysis
Pull-down assay. LSM sublibraries were screened separately as previously described.(2) Experiments were performed in the following buffers: (i) 20 mM pH 7.4 HEPES, 150 mM NaCl, 5 mM CaCl2 for CaM; (ii) 50 mM pH 7.4 HEPES, 150 mM NaCl, 1 mM TCEP, 1 mM CaCl2 for S100 proteins; (iii) 20 mM pH 7.4 HEPES, 150 mM NaCl, 1 mM TCEP for Gal-1 and (iv) 20 mM pH 7.4 HEPES, 150 mM NaCl for RecQ-WH. Assays were performed in paper filter spin cups (Thermo Scientific) with sample volumes of 100 µl. Hexahistidine-tagged proteins were immobilized on previously washed Co-NTA resin (TALON, Takara Bio USA, Inc., Mountain View, CA) in 64 µM final concentration. LSM sublibrary was added, in which each of the 64 library members were used at a concentration of 1 µM. Samples were incubated at room temperature for 30 min with shaking at 100 rpm. Then, samples were centrifuged at 1000 rpm for 2 min and washed with 100 µl pull-down buffer to remove unbound compounds.
The control experiments were performed using the same compounds and the resin but without the immobilized protein. In case of competitive assays, competitor peptides were added to LSM sublibrary samples in 200 µM final concentration. In the case of Gal-1, lactose (competitor) was used in a concentration of 10 mM. Experiments were performed at least twice. Mean […]
LC-MS methods and parameters. HPLC/ESI-MS analysis was used to characterize the samples from the pull-down assay. LC-MS analysis was performed with a Thermo Scientific Dionex UltiMate 3000 HPLC system interfaced to an LTQ ion trap mass spectrometer (Thermo Electron Corp., San Jose, CA, USA). Samples were injected onto an Aeris Widepore XB-C18 (250 x 4.6 mm) analytical HPLC column using gradient elution 5-80 % solution B during 25 minutes. For pull-down samples, eluent composition was 0.1% acetic acid in distilled water (Solution A) and 0.1% acetic acid in acetonitrile (solution B). Mass spectra were acquired in full scan mode from 200 to 2000 m/z range. For overlapping peaks, selective reaction monitoring (SRM) was […]
MS data analysis. Thermo Xcalibur 2.2 software was used for peak identification and integration. The majority of the foldameric fragments could be resolved independently via HPLC-MS/MS measurements based on molecular weight, MS fragmentation pattern and retention time. Peaks of some foldamers with β3-hIle or β3-hLeu in position R2 could not be resolved, these were integrated and averaged. In the processing method, each sample component was associated to a chromatographic peak based on previously identified mass (m/z) and retention time (ref (2) and Table S7-10). Using ICIS peak detection algorithm, the general detection and integration criteria were: smoothing points: 5, baseline window: 80, area noise factor: 5, peak noise factor: 10. Using these processing setups, all raw data files were reprocessed together and analyzed. Errors in peak identification during the automatic processing were corrected manually.
Calculation of the discussed parameters […]

T1 sequence (P26447 whole entry): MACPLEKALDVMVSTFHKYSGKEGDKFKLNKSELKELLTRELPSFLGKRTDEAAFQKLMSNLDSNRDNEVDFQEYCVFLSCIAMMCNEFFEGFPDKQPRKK

Kd ([1]; H12 library) [µM]	Kd ([2]; H12 library) [µM]	Kd ([3]; H12 library) [µM]	Kd ([4]; H12 library) [µM]	Kd [5] [µM]	Compound	also measured
95	25	126	19	–	N=C(N)NCCC[C@@H](CC(=O)N[C@H]1CCC[C@@H]1C(=O)N[C@H]1CCC[C@@H]1C(=O)N[C@H](CC(=O)N[C@H]1CCC[C@@H]1C(=O)N[C@H]1CCC[C@@H]1C(N)=O)Cc1c[nH]c2ccccc12)NC(=O)[C@H]1CCC[C@@H]1NC(=O)[C@H]1CCC[C@@H]1N [H12 RW]	–
400	89	198	381	–	N=C(N)NCCC[C@@H](CC(=O)N[C@H]1CCC[C@@H]1C(=O)N[C@H]1CCC[C@@H]1C(=O)N[C@H](CC(=O)N[C@H]1CCC[C@@H]1C(=O)N[C@H]1CCC[C@@H]1C(N)=O)Cc1ccc(O)cc1)NC(=O)[C@H]1CCC[C@@H]1NC(=O)[C@H]1CCC[C@@H]1N [H12 RY]	–
95	45	388	128	–	CC(C)[C@@H](CC(=O)N[C@H]1CCC[C@@H]1C(=O)N[C@H]1CCC[C@@H]1C(=O)N[C@H](CC(=O)N[C@H]1CCC[C@@H]1C(=O)N[C@H]1CCC[C@@H]1C(N)=O)Cc1ccccc1)NC(=O)[C@H]1CCC[C@@H]1NC(=O)[C@H]1CCC[C@@H]1N [H12 VF]	–
184	31	346	56	–	CC(C)[C@@H](CC(=O)N[C@H]1CCC[C@@H]1C(=O)N[C@H]1CCC[C@@H]1C(=O)N[C@H](CC(=O)N[C@H]1CCC[C@@H]1C(=O)N[C@H]1CCC[C@@H]1C(N)=O)Cc1c[nH]c2ccccc12)NC(=O)[C@H]1CCC[C@@H]1NC(=O)[C@H]1CCC[C@@H]1N [H12 VW]	–
392	210	413	247	–	CC(C)[C@@H](CC(=O)N[C@H]1CCC[C@@H]1C(=O)N[C@H]1CCC[C@@H]1C(=O)N[C@H](CC(=O)N[C@H]1CCC[C@@H]1C(=O)N[C@H]1CCC[C@@H]1C(N)=O)Cc1ccc(O)cc1)NC(=O)[C@H]1CCC[C@@H]1NC(=O)[C@H]1CCC[C@@H]1N [H12 VY]	–
135	7	117	9	–	NC(=O)[C@H]1CCC[C@@H]1NC(=O)[C@H]1CCC[C@@H]1NC(=O)C[C@H](Cc1ccccc1)NC(=O)[C@H]1CCC[C@@H]1NC(=O)[C@H]1CCC[C@@H]1NC(=O)C[C@H](Cc1c[nH]c2ccccc12)NC(=O)[C@H]1CCC[C@@H]1NC(=O)[C@H]1CCC[C@@H]1N [H12 WF]	–
164	18	174	134	–	CC[C@H](C)[C@@H](CC(=O)N[C@H]1CCC[C@@H]1C(=O)N[C@H]1CCC[C@@H]1C(N)=O)NC(=O)[C@H]1CCC[C@@H]1NC(=O)[C@H]1CCC[C@@H]1NC(=O)C[C@H](Cc1c[nH]c2ccccc12)NC(=O)[C@H]1CCC[C@@H]1NC(=O)[C@H]1CCC[C@@H]1N [H12 WI]	–
105	21	200	27	–	CC(C)C[C@@H](CC(=O)N[C@H]1CCC[C@@H]1C(=O)N[C@H]1CCC[C@@H]1C(N)=O)NC(=O)[C@H]1CCC[C@@H]1NC(=O)[C@H]1CCC[C@@H]1NC(=O)C[C@H](Cc1c[nH]c2ccccc12)NC(=O)[C@H]1CCC[C@@H]1NC(=O)[C@H]1CCC[C@@H]1N [H12 WL]	–
56	8	151	413	–	NC(=O)[C@H]1CCC[C@@H]1NC(=O)[C@H]1CCC[C@@H]1NC(=O)C[C@H](Cc1c[nH]c2ccccc12)NC(=O)[C@H]1CCC[C@@H]1NC(=O)[C@H]1CCC[C@@H]1NC(=O)C[C@H](Cc1c[nH]c2ccccc12)NC(=O)[C@H]1CCC[C@@H]1NC(=O)[C@H]1CCC[C@@H]1N [H12 WW]	–

Second part, the compound before the results:

Compound	Kd ([1]; H12 library) [µM]	Kd ([2]; H12 library) [µM]	Kd ([3]; H12 library) [µM]	Kd ([4]; H12 library) [µM]	Kd [5] [µM]	also measured
CC[C@H](C)[C@@H](CC(=O)N[C@H]1CCC[C@@H]1C(=O)N[C@H]1CCC[C@@H]1C(N)=O)NC(=O)[C@H]1CCC[C@@H]1NC(=O)[C@H]1CCC[C@@H]1NC(=O)C[C@@H](NC(=O)[C@H]1CCC[C@@H]1NC(=O)[C@H]1CCC[C@@H]1N)C(C)C [H12 VI]	190	92	469	164	–	–
CC(C)C[C@@H](CC(=O)N[C@H]1CCC[C@@H]1C(=O)N[C@H]1CCC[C@@H]1C(N)=O)NC(=O)[C@H]1CCC[C@@H]1NC(=O)[C@H]1CCC[C@@H]1NC(=O)C[C@@H](NC(=O)[C@H]1CCC[C@@H]1NC(=O)[C@H]1CCC[C@@H]1N)C(C)C [H12 VL]	190	92	469	164	–	–
NC(=O)[C@H]1CCCC[C@@H]1NC(=O)C[C@H](CCC(=O)O)NC(=O)[C@H]1CCCC[C@@H]1NC(=O)[C@H]1CCCC[C@@H]1NC(=O)C[C@H](CC(=O)O)NC(=O)[C@H]1CCCC[C@@H]1N [H14 DE]	–	–	–	–	318	–
NC(=O)[C@H]1CCCC[C@@H]1NC(=O)C[C@H](CO)NC(=O)[C@H]1CCCC[C@@H]1NC(=O)[C@H]1CCCC[C@@H]1NC(=O)C[C@H](CC(=O)O)NC(=O)[C@H]1CCCC[C@@H]1N [H14 DS]	–	–	–	–	415	–
C[C@@H](O)[C@@H](CC(=O)N[C@H]1CCCC[C@@H]1C(N)=O)NC(=O)[C@H]1CCCC[C@@H]1NC(=O)[C@H]1CCCC[C@@H]1NC(=O)C[C@H](CC(=O)O)NC(=O)[C@H]1CCCC[C@@H]1N [H14 DT]	–	–	–	–	282	–
CC(C)[C@@H](CC(=O)N[C@H]1CCCC[C@@H]1C(N)=O)NC(=O)[C@H]1CCCC[C@@H]1NC(=O)[C@H]1CCCC[C@@H]1NC(=O)C[C@H](CC(=O)O)NC(=O)[C@H]1CCCC[C@@H]1N [H14 DV]	–	–	–	–	316	–
NC(=O)[C@H]1CCCC[C@@H]1NC(=O)C[C@H](CC(=O)O)NC(=O)[C@H]1CCCC[C@@H]1NC(=O)[C@H]1CCCC[C@@H]1NC(=O)C[C@H](CCC(=O)O)NC(=O)[C@H]1CCCC[C@@H]1N [H14 ED]	–	–	–	–	318	–
NC(=O)[C@H]1CCCC[C@@H]1NC(=O)C[C@H](CCC(=O)O)NC(=O)[C@H]1CCCC[C@@H]1NC(=O)[C@H]1CCCC[C@@H]1NC(=O)C[C@H](CCC(=O)O)NC(=O)[C@H]1CCCC[C@@H]1N [H14 EE]	–	–	–	–	353	–
CC(C)C[C@@H](CC(=O)N[C@H]1CCCC[C@@H]1C(=O)N[C@H]1CCCC[C@@H]1C(=O)N[C@@H](CCC(N)=O)CC(=O)N[C@H]1CCCC[C@@H]1C(N)=O)NC(=O)[C@H]1CCCC[C@@H]1N [H14 LQ]	–	–	–	–	–	Kd ([1]; H14 library): 304 µM; Kd ([2]; H14 library): 435 µM; Kd ([3]; H14 library): 343 µM; Kd ([4]; H14 library): 275 µM
